The subject of experiment [1] is MAB AI-18. The experiment is described as follows: Solid-phase polypeptide competitive ELISA (AI90-105 coated wells, HRP-type labeled MAB AI-18). The class given is binding, mouse. To be noted: reference material: pool of about 20 normal plasmas; FIG. 8. On the procedure:
Six hundred microliters of 25 mM NH4 HCO3, pH 9.6, containing polypeptide AI90-105 at a concentration of 5 mg/ml were admixed with 119.4 ml of 0.1M NaHC)3, pH 9.0, to form a peptide coating solution. One hundred fifty microliters of the coating solution were admixed into the wells of flexible polyvinyl chloride microtiter plates (Nunc, Source). The wells were then maintained about 16-20 hours at 4 degrees C. to permit the peptide to adsorb onto (coat) the walls of the wells. After removing the peptide coating solution by shaking, the wells were washed once with 350 ul of rinsing buffer (PBS containing 1 gm/l BSA, 0.5 ml/l Tween 20, and 2 ul/l aprotinin). Excess protein binding sites were blocked by admixing 200 ul of blocking buffer (PBS containing 3% BSA) into each well, maintaining the wells for 1 hour at 20 degrees C., removing the blocking buffer by shaking, and then washing the wells 3 times as previously described. […]
Two hundred microliters of OPD substrate were then admixed into each well to form a developing-reaction admixture, which was maintained for 30 minutes at about 20 degrees C. Subsequently, 50 ul of 4N H2 SO4 were admixed into each well to stop the developing-reaction, and the resulting solution were assayed for absorbance at 490 nanometers using a microtiter plate reader (Dynatech). […]
(In an ELISA, binding on a coated surface is turned into a signal by an enzyme label.)

The target in experiment [2] is MAB AI-18. The experiment is described as follows: Competitive RIA: inhibition of MAB AI-18 binding to solid-phase Apo AI/HDL by competitor antigen or peptide. The arrangement: species or system mouse. Particulars: for B/Bo: background-adjusted. As for the experimental part:
One hundred ul of PBS (0.15M NaCl, 0.01M NaPO4, pH 7.2) containing 10 ug/ml Apo AI/HDL were admixed to the wells of microtiter plates. The plates were maintained for 1 hour at 20 degrees C. on a rotating platform to allow the Apo AI/HDL to adhere to the wells and form solid supports. After aspirating excess liquid from the wells, 200 ul of block solution (3% BSA, 3% NGS in PBS) was admixed to each well, and the wells were maintained for 30 minutes at 20 degrees C. on a rotating platform. Subsequently, the blocking solution was removed by aspiration and the wells were washed 3 times with SPRIA buffer.
In control wells either competing antigen or antibody was replaced by PBS containing 3% BSA.
The immunoreaction admixtures were maintained about 16 hours at 4 degrees C. on a rotating platform to permit formation of solid-phase immunoreaction products. […] The labeling immunoreaction admixtures so formed were maintained for 4 hours at 4 degrees C. on a rotating platform.
[…] of serial 3 fold dilutions of each sample prepared in Table 3 were admixed as competitor in the RIA described in this Example.
Fifty microliters of the stock of 2 fold serial dilutions of the stock were used as competitor in the RIA described in this Example.

Here are results for two substances from US5055396A, “Diagnostic methods and systems for quantifying APO AI” (Scripps Clinic and Research Foundation, priority 1987, dated 1991).

LEEVKAKVQPYLDDFQ [AI90-105]: the “immunoreactivity of MAB AI-18 for peptide compared with reference material” value in experiment [1] was “equivalent immunoreactivities”. Moreover, in experiment [2] (competitive RIA, MAB AI-18 ascites 1:1.25×10^5, solid-phase Apo AI/HDL), the “Immunoreactivity (concentration of peptide competitor required to achieve a B/Bo value of 0.5)” value stood at 30 ug protein/ml.
As for “C: NaOH treated Apo AI/HDL, 50 ul 0.01N NaOH, pH 7.04”, the “expression of the epitope recognized by MAB AI-18 after NaOH treatment” value in experiment [2] (NaOH treated Apo AI/HDL, 18 hours at about 20 degrees C) is recorded as “stable to NaOH treatments”. Besides, the “CPM of 125I-labeled solid phase immunoreaction product” value in experiment [2] (competitor dilution 1:3) is recorded as 2479 CPM; in experiment [2] (competitor dilution 1:9) it was 4502 CPM; in experiment [2] (competitor dilution 1:27), 6005 CPM; in experiment [2] (competitor dilution 1:81), 6618 CPM; in experiment [2] (competitor dilution 1:243), 7277 CPM; in experiment [2] (competitor dilution 1:729), 7485 CPM. Besides, the “CPM of 125I-labeled solid phase immunoreaction product” value in experiment [2] (competitor dilution Neat) was 1070 CPM. The B/Bo in experiment [2] (competitor dilution 1:3) was found to be 0.293; in experiment [2] (competitor dilution 1:9) it was 0.553; in experiment [2] (competitor dilution 1:27), 0.746; in experiment [2] (competitor dilution 1:81), 0.825; in experiment [2] (competitor dilution 1:243) it was 0.909; in experiment [2] (competitor dilution 1:729) it was 0.936. Also, the B/Bo in experiment [2] (competitor dilution Neat) stood at 0.112.
